We go through twelve compounds from ChEMBL document CHEMBL4354823, “Discovery and in Vivo Evaluation of Macrocyclic Mcl-1 Inhibitors Featuring an α-Hydroxy Phenylacetic Acid Pharmacophore or Bioisostere” (J Med Chem, 2019).

A short description of data set [1]: in vivo. Particulars: Sprague-Dawley, rat, iv, 0.5 mg/kg.
Data set [2] is described as follows: in vitro. Particulars: rat, liver microsomes.
The nature of data set [3]: in vivo. To be noted: Sprague-Dawley, rat, po, 2 mg/kg.
Data set [4] in a line: in vitro. Particulars: human, liver microsomes. On the technique in general: Liver microsomes are a subcellular fraction often used to study metabolism.
The nature of data set [5]: in vivo. To be noted: Sprague-Dawley, rat, iv, 0.5 mg/kg. This is another data set of the same source.
For data set [6] the following is noted: dog, in vivo, iv, 0.5 mg/kg.
For data set [7] the following is noted: mouse, in vivo, po, 30 mg/kg, 6 h.
Data set [8] in a line: physchem. To be noted: simulated intestinal fluid, pH 6.6.
The nature of data set [9]: in vivo. Particulars: Beagle, dog, po, 2 mg/kg.
For data set [10] the following is noted: mouse, in vivo, po, 60 mg/kg, 6 h.
Data set [11] in a line: in vivo. Particulars: athymic nude, mouse, plasma, po, 60 mg/kg.
A short description of data set [12]: Clearance in CD-1 mouse at 1 mg/kg, iv. The format is ADME, organism-based. To be noted: in vivo.
The conditions of data set [13]: rat, in vivo, iv, 0.5 mg/kg.
Data set [14] can be described thus: in vivo. To be noted: Beagle, dog, iv, 0.5 mg/kg.
Data set [15] is described as follows: physchem. To be noted: simulated gastric fluid, pH 1.7.
A short description of data set [16]: Oral bioavailability in CD-1 mouse at 3 mg/kg. Particulars: in vivo. The format is ADME, organism-based.
A short description of data set [17]: in vivo. To be noted: athymic nude, mouse, plasma, po, 30 mg/kg.
Data set [18] can be described thus: Unbound clearance in CD-1 mouse at 1 mg/kg, iv. The format is ADME, organism-based. Particulars: in vivo.
Data set [19] can be described thus: physchem. Particulars: simulated intestinal fluid, pH 6.6. This is another data set of the same source.
Data set [20] in a line: physchem. Particulars: simulated gastric fluid, pH 1.7. The source holds these as a separate data set.
The conditions of data set [21]: rat, in vivo, iv, 0.5 mg/kg. This is another data set of the same source.
Data set [22] can be described thus: in vitro. To be noted: pig, LLC-PK1.

Some results are limits rather than exact numbers.

As a reminder, the clearance is a measure of how efficiently the substance is removed, as volume per time. Usually microsomal CLint stands for the rate of metabolic loss divided by the concentration. A high value points to rapid turnover. The bioavailability is the share of a dose that reaches the circulation, judged against a reference dose that is usually intravenous. Low readings indicate little systemic uptake, high ones much systemic uptake. Broadly, the half-life is the time needed for the level to fall by half in the phase considered. The low end stands for rapid decline, the high end for slow decline. `CN1CC/C=C/[C@H](OCCN2CCS(=O)(=O)CC2)[C@@H]2CC[C@H]2CN2C[C@@]3(CCCc4cc(Cl)ccc43)COc3ccc(cc32)[C@@](O)(C(=O)NS(=O)(=O)N(C)C)CC1=O` gave a clearance in “in vivo [1]” of 60 mL/min/kg. Besides, the microsomal CLint in the data set “in vitro [2]” and in the data set “in vitro [4]” was < 14 µL/min/mg throughout. The compound also registered a bioavailability in “in vivo [3]” of 6%. The compound further had a half-life in “in vivo [5]” of 132 min.
For `CO[C@H]1/C=C/CCN(C)C(=O)C[C@](O)(C(=O)NS(C)(=O)=O)c2ccc3c(c2)N(C[C@@H]2CC[C@H]21)C[C@@]1(CCCc2cc(Cl)ccc21)CO3`, the clearance in “in vivo [1]” is 26.7 mL/min/kg. In addition, the bioavailability in “in vivo [3]” came out at 8%. This compound showed a half-life in “in vivo [5]” of 156 min.
The like results for `COC(=O)[C@@]1(O)CC(=O)N(C)CC/C=C/[C@H](OC)[C@@H]2CC[C@H]2CN2C[C@@]3(CCCc4cc(Cl)ccc43)COc3ccc1cc32` were, in that order, 43.3 mL/min/kg, 2% and 150 min.
In the data set “in vivo [1]”, `CN(C)C(=O)CO[C@H]1/C=C/CCN(C)C(=O)C[C@](O)(C(=O)NS(=O)(=O)N(C)C)c2ccc3c(c2)N(C[C@@H]2CC[C@H]21)C[C@@]1(CCCc2cc(Cl)ccc21)CO3` had a clearance of 21.7 mL/min/kg. For the same compound, the microsomal CLint in “in vitro [2]” is < 14 µL/min/mg; in the data set “in vitro [4]” it was 19 µL/min/mg. The compound also showed a half-life in the data set “in vivo [5]” of 186 min.
In the data set “in vivo [1]”, `CN1CC/C=C/[C@H](OCCN2CCOCC2)[C@@H]2CC[C@H]2CN2C[C@@]3(CCCc4cc(Cl)ccc43)COc3ccc(cc32)[C@@](O)(C(=O)NS(=O)(=O)N(C)C)CC1=O` had a clearance of 15 mL/min/kg. Also, the microsomal CLint in the data set “in vitro [2]” was < 14 µL/min/mg; in the data set “in vitro [4]”, 21 µL/min/mg. Besides, the bioavailability in “in vivo [3]” came out at 9%. The same compound gave a half-life in “in vivo [5]” of 168 min.
Regarding `CN1CC/C=C/[C@H](OCCN2CC(F)C2)[C@@H]2CC[C@H]2CN2C[C@@]3(CCCc4cc(Cl)ccc43)COc3ccc(cc32)[C@@](O)(C(=O)NS(=O)(=O)N(C)C)CC1=O`, the clearance in the data set “in vivo [1]” is 11.7 mL/min/kg. For the same compound, the intrinsic metabolic clearance (microsomal CLint) in “in vitro [2]” and in the data set “in vitro [4]” was < 14 µL/min/mg throughout. Further, in “in vivo [5]”, the half-life is 270 min.
What is called fraction remaining is the share of the starting amount still present when the sample was taken. For `CO[C@H]1/C=C/C[C@H](C)[C@@H](C)S(=O)(=O)NC(=O)c2ccc3c(c2)N(C[C@@H]2CC[C@H]21)C[C@@]1(CCCc2cc(Cl)ccc21)CO3` [TAPOTOCLAX], the CL free in [6] turned out to be 1.34 L/h/kg; in data set [13] it was 8.3 L/h/kg; in data set [18], 4 L/h/kg. The “Cp(f)” value in data set [7] worked out at 0.368 µM; in data set [10], 0.529 µM. Also, the figures for the clearance (in the data set “in vivo [1]”; in data set [12]; in “in vivo [14]”) were 1 mL/min/kg, 0.5 mL/min/kg and 0.333 mL/min/kg, respectively. For the same compound, the share remaining at 0.5 h, 1 µM in the data set “physchem [8]” and in the data set “physchem [20]” was 90% in each case. For the same compound, the figures for the bioavailability (in the data set “in vivo [9]”; in the data set “in vivo [3]”; in data set [16]) were 27%, 34% and 31%, respectively. For the same compound, the figures for the concentration at 6 h in the data set “in vivo [11]” and in “in vivo [17]” were 70.9 µM and 49.3 µM, respectively. Besides, the share remaining at 1 h, 1 µM is 84% in “physchem [15]” and 81% in the data set “physchem [19]”. In the data set “in vivo [5]”, this compound showed a half-life of 1090 min.
`CN1CC/C=C/[C@H](OCCN2CCC(F)(F)CC2)[C@@H]2CC[C@H]2CN2C[C@@]3(CCCc4cc(Cl)ccc43)COc3ccc(cc32)[C@@](O)(C(=O)NS(=O)(=O)N(C)C)CC1=O`: the intrinsic metabolic clearance (microsomal CLint) was < 14 µL/min/mg in “in vitro [2]” and 43 µL/min/mg in the data set “in vitro [4]”.
Broadly, the Papp is a coefficient for how fast a substance crosses the barrier. `CO[C@H]1/C=C/CCN(C)C(=O)C[C@](O)(C(=O)O)c2ccc3c(c2)N(C[C@@H]2CC[C@H]21)C[C@@]1(CCCc2cc(Cl)ccc21)CO3`: in the data set “in vivo [1]”, the clearance fell in the range of 23.3 to 23.8 mL/min/kg. Besides, the amount remaining at 0.5 h, 1 µM in “physchem [8]” was 100%; in the data set “physchem [20]” it was 49%. The compound also registered a bioavailability in the data set “in vivo [3]” of 0%. For the same compound, the amount remaining at 1 h, 1 µM in the data set “physchem [15]” is 26%; in the data set “physchem [19]”, 100%. Also, the CL in [21] was determined as 31%. For the same compound, the Papp in “in vitro [22]” was found to be 4.5 ×10⁻⁶ cm/s. The compound further gave a half-life in the data set “in vivo [5]” of 408 min.
In turn, `CN1CC/C=C/[C@H](OCCCN2CC(F)(F)C2)[C@@H]2CC[C@H]2CN2C[C@@]3(CCCc4cc(Cl)ccc43)COc3ccc(cc32)[C@@](O)(C(=O)NS(=O)(=O)N(C)C)CC1=O` had a clearance in “in vivo [1]” of 3.33 mL/min/kg. This compound also came in with a bioavailability in “in vivo [3]” of 52%. Further, the half-life in “in vivo [5]” was 330 min.
For `COC1CN(CCO[C@H]2/C=C/CCN(C)C(=O)C[C@](O)(C(=O)NS(=O)(=O)N(C)C)c3ccc4c(c3)N(C[C@@H]3CC[C@H]32)C[C@@]2(CCCc3cc(Cl)ccc32)CO4)C1`, in that order: 58.3 mL/min/kg, 6% and 378 min.
The like results for `CN1CC/C=C/[C@H](OCCOCC(F)F)[C@@H]2CC[C@H]2CN2C[C@@]3(CCCc4cc(Cl)ccc43)COc3ccc(cc32)[C@@](O)(C(=O)NS(=O)(=O)N(C)C)CC1=O` were, in that order, 0.833 mL/min/kg, 41% and 390 min.
